From US6335350B1, “Acetamide and substituted acetamide-containing thiourea inhibitors of herpes viruses” (American Home Products Corporation, priority 1998, dated 2002)
In brackets after ≈: the same amount, converted by molar mass.

What was measured:
[1] = system: VZV strain Ellen; test: VZV Antiviral (ELISA) Assay; assay type: cell-based, varicella-zoster virus; conditions: Human alphaherpesvirus 3, Fibroblast, human foreskin fibroblast cells; for IC50: read-out: IC50 Ug/ml VZV; for inhibition at 10 µg/mL: read-out: % inhibition 10 ug/ml VZV, 10 ug/ml
Method: For the generation of stock VZV to be used in the assay, VZV strain Ellen (ATCC #VR-1367) is used to infect human foreskin fibroblast (HFF) cells at low multiplicity (less than 0.1) and incubated overnight at 37° C. in 5% CO2. After the overnight incubation, the mixture of uninfected and VZV-infected HFF infected cells are then harvested and added to each well of 96-well plates (3.5×10^4 cells in 100 μl DMEM supplemented with 2% FBS) which contain test compound or the reference standard drug control (in 100 μl DMEM supplemented with 2% FBS per well). These cells are incubated for three days at 37° C. in 5% CO2, then fixed for ELISA assay. The primary antibody is murine anti-VZV glycoprotein II monoclonal antibody (Applied Biosystems, Inc. #13-145-100) and the secondary antibody is goat anti-mouse IgG linked to β-galactosidase. Thus the extent of viral replication is determined by assessing β-galactosidase activity by quantifying the generation of the 4-methyl umbelliferone fluorescent cleavage product after addition of the methyl umbelliferyl-β-D-galactoside (Sigma #M1633) substrate on a microfluorimeter (365 nm for excitation and 450 nm for emission). Antiviral activity (IC50) of the test compound is determined by comparing the flourescence obtained in absence of compound to that obtained in the presence of compound.

[2] = system: HSV-1; test: HSV Antiviral (ELISA) Assay; assay type: cell-based, herpes simplex virus type 1; conditions: Vero cells, HSV-1; for IC50: Human alphaherpesvirus 1, Vero, read-out: IC50 Ug/ml HSV
Method: Vero cells (ATCC #CCL-81) are plated on 96-well tissue culture plates at 3.5×10^4 cells per 100 μl tissue culture DMEM (Dulbecco's modified Eagle media) supplemented with 2% fetal bovine serum (FBS) in each well. After overnight incubation @ 37° C. (in 5% CO2) and 30 minutes prior to infection with HSV-1 (multiplicity of infection equal to 0.006), cells are either untreated, or treated with test compound (multiple concentrations) or reference standard drug control. After approximately 24 hours post-infection incubation @ 37° C. (in 5% CO2), cells are fixed for ELISA assay. The primary antibody is murine anti-HSV glycoprotein D monoclonal primary antibody and the secondary antibody is goat anti-mouse IgG linked to β-galactosidase. Thus the extent of viral replication is determined by assessing β-galactosidase activity by quantifying the generation of the 4-methyl umbelliferone fluorescent cleavage product after addition of the methyl umbelliferyl-β-D-galactoside (Sigma #M1633) substrate on a microfluorimeter (365 nm for excitation and 450 nm for emission). Antiviral activity (IC50) of the test compound is determined by comparing the flourescence obtained in absence of compound to that obtained in the presence of compound.

[3] = system: HCMV wild-type; test: HCMV yield assay; assay type: cell-based, human cytomegalovirus; conditions: human foreskin fibroblasts; for IC50: Human betaherpesvirus 5, Fibroblast, read-out: IC50 Ug/ml HCMV
Method: Yield assay. Monolayer cultures of human foreskin fibroblasts are infected with HCMV wild-type, typically at a multiplicity of infection equal to 0.2, in the presence of inhibitor compound (varying concentrations). At three days post-infection, total virus produced in these cultures (i.e. virus yield) is assessed by harvesting and titering the virus in 12-well plates of cultured human foreskin fibroblasts (done in the absence of inhibitor). Plaques are quantified at 2 weeks post-infection. An inhibitor of HCMV is identified by the reduction in titer of virus yield in the presence, compared to the titer in the absence of compound. In this assay, the relative anti-HCMV activity of an inhibitor is typically determined by calculating the IC50 or IC90 value, that is, the amount of compound required to reduce the virus yield by 50% or 90%, respectively. Table I describes IC50 data for compounds tested against HCMV.

Molecule	IC50 [1]	inhibition at 10 µg/mL [1]	IC50 [2]	IC50 [3]	IC50 Ug/ml HSV [2]	IC50 Ug/ml HCMV [3]
COc1cc(OC)c(NC(=S)Nc2ccc(N(C)C(C)=O)cc2)cc1Cl [Example 99, N-{4-[3-(5-Chloro-2,4-dimethoxy-phenyl)-thioureido]-phenyl}-N-methyl-acetamide]	> 10 µg/mL	2%	50 µg/mL (≈ 127 µM)	> 50 µg/mL	–	–
COc1cc(OC)c(NC(=S)Nc2cccc(NC(C)=O)c2)cc1Cl [Example 100, N-{3-[3-(5-Chloro-2,4-dimethoxy-phenyl)-thioureido]-phenyl}-acetamide]	> 10 µg/mL	19%	40 µg/mL (≈ 105 µM)	> 50 µg/mL	–	–
COc1ccc(NC(=S)Nc2ccc(NC(C)=O)cc2)c(OC)c1 [Example 103, N-{4-[3-(2,4-Dimethoxy-phenyl)-thioureido]-phenyl}-acetamide]	> 10 µg/mL	28%	25 µg/mL (≈ 72.4 µM)	> 50 µg/mL	–	–
COc1ccc(NC(=S)Nc2ccc(NC(C)=O)cc2)cc1 [Example 104, N-{4-[3-(4-Methoxy-phenyl)-thioureido]-phenyl}-acetamide]	> 10 µg/mL	8%	> 50 µg/mL	> 50 µg/mL	–	–
COc1ccccc1NC(=S)Nc1ccc(NC(C)=O)cc1 [Example 105, N-{4-[3-(2-Methoxy-phenyl)-thioureido]-phenyl}-acetamide]	> 10 µg/mL	32%	> 50 µg/mL	> 50 µg/mL	–	–
COc1ccc(NC(=S)Nc2ccc(NC(C)=O)cc2)cc1Cl [Example 106, N-{4-[3-(3-Chloro-4-methoxy-phenyl)-thioureido]-phenyl}-acetamide]	> 10 µg/mL	20%	3 µg/mL (≈ 8.58 µM)	7 µg/mL (≈ 20 µM)	–	–
COc1ccc(Cl)cc1NC(=S)Nc1ccc(NC(C)=O)cc1 [Example 107, N-{4-[3-(5-Chloro-2-methoxy-phenyl)-thioureido]-phenyl}-acetamide]	> 10 µg/mL	20%	> 50 µg/mL	> 50 µg/mL	–	–
CC(=O)Nc1ccc(NC(=S)Nc2cc(Cl)c(O)c(Cl)c2)cc1 [Example 108, N-{4-[3-(3,5-Dichloro-4-hydroxy-phenyl)-thioureido]-phenyl}-acetamide]	> 10 µg/mL	28%	50 µg/mL (≈ 135 µM)	> 50 µg/mL	–	–
COc1c(Cl)cc(NC(=S)Nc2ccc(NC(C)=O)cc2)cc1Cl [Example 109, N-{4-[3-(3,5-Dichloro-4-methoxy-phenyl)-thioureido]-phenyl}-acetamide]	> 10 µg/mL	27%	> 10 µg/mL	0.4 µg/mL (≈ 1.04 µM)	–	–
COc1cc(NC(=S)Nc2ccc(NC(C)=O)cc2)c(OC)cc1Cl [Example 110, N-{4-[3-(4-Chloro-2,5-dimethoxy-phenyl)-thioureido]-phenyl}-acetamide]	> 10 µg/mL	25%	12 µg/mL (≈ 31.6 µM)	30 µg/mL (≈ 79 µM)	–	–
CC(=O)Nc1ccc(NC(=S)Nc2cc(C(F)(F)F)ccc2Cl)cc1 [Example 111, N-{4-[3-(2-Chloro-5-trifluoromethyl-phenyl)-thioureido]-phenyl}-acetamide]	> 10 µg/mL	51%	15 µg/mL (≈ 38.7 µM)	12 µg/mL (≈ 30.9 µM)	–	–
CC(=O)Nc1ccc(NC(=S)Nc2ccc(Cl)c(C(F)(F)F)c2)cc1 [Example 112, N-{4-[3-(4-Chloro-3-trifluoromethyl-phenyl)-thioureido]-phenyl}-acetamide]	> 10 µg/mL	55%	5 µg/mL (≈ 12.9 µM)	3 µg/mL (≈ 7.74 µM)	–	–
CC(=O)Nc1ccc(NC(=S)Nc2ccc(OC(=O)c3ccccc3)cc2O)cc1 [Example 113, Benzoic acid 4-[3-(4-acetylamino-phenyl)-thioureido]-3-hydroxy-phenylester]	> 10 µg/mL	39%	50 µg/mL (≈ 119 µM)	45 µg/mL (≈ 107 µM)	–	–
CC(=O)Nc1ccc(NC(=S)Nc2cccc([N+](=O)[O-])c2)cc1 [Example 124, N-{4-[3-(3-Nitro-phenyl)-thioureido]-phenyl}-acetamide]	> 10 µg/mL	0%	50 µg/mL (≈ 151 µM)	50 µg/mL (≈ 151 µM)	–	–
CC(=O)Nc1ccc(NC(=S)Nc2cc(Cl)ccc2O)cc1 [Example 126, N-{4-[3-(5-Chloro-2-hydroxy-phenyl)-thioureido]-phenyl}-acetamide]	> 10 µg/mL	23%	30 µg/mL (≈ 89.3 µM)	20 µg/mL (≈ 59.6 µM)	–	–
CC(=O)Nc1ccc(NC(=S)Nc2cc(C)c(O)c(Cl)c2)cc1 [Example 128, N-{4-[3-(3-Chloro-4-hydroxy-5-methyl-phenyl)-thioureido]-phenyl}-acetamide]	> 10 µg/mL	35%	15 µg/mL (≈ 42.9 µM)	15 µg/mL (≈ 42.9 µM)	–	–
CC(=O)Nc1ccc(NC(=S)Nc2cc(Cl)c(O)c(Cl)c2C)cc1 [Example 129, N-{4-[3-(3,5-Dichloro-4-hydroxy-2-methyl-phenyl)-thioureido]-phenyl}-acetamide]	> 10 µg/mL	29%	> 50 µg/mL	> 50 µg/mL	–	–
CC(=O)Nc1ccc(NC(=S)Nc2ccc(O)cc2O)cc1 [Example 130, N-{4-[3-(2,4-Dihydroxy-phenyl)-thioureido]-phenyl}-acetamide]	> 10 µg/mL	30%	> 50 µg/mL	30 µg/mL (≈ 94.5 µM)	–	–
COc1cc(OC)c(C(F)(F)F)cc1NC(=S)Nc1ccc(NC(C)=O)cc1 [Example 131, N-{4-[3-(2,4-Dimethoxy-5-trifluoromethyl-phenyl)-thioureido]-phenyl}-acetamide]	> 10 µg/mL	53%	15 µg/mL (≈ 36.3 µM)	< 50 µg/mL	–	–
COc1ccc(NC(=S)Nc2ccc(NC(C)=O)cc2)c(O)c1 [Example 132, N-{4-[3-(2-Hydroxy-4-methoxy-phenyl)-thioureido]-phenyl}-acetamide]	> 10 µg/mL	11%	> 50 µg/mL	> 50 µg/mL	–	–
COc1cc(OC)c(NC(=S)Nc2ccc(NC(C)=O)cc2)cc1Br [Example 150, N-{4-[3-(5-Bromo-2,4-dimethoxy-phenyl)-thioureido]-phenyl}-acetamide]	> 10 µg/mL	3%	9 µg/mL (≈ 21.2 µM)	40 µg/mL (≈ 94.3 µM)	–	–
COc1cc(NC(=S)Nc2ccc(NC(C)=O)cc2)cc(OC)c1OC [Example 151, N-{4-[3-(3,4,5-Trimethoxy-phenyl)-thioureido]-phenyl}-acetamide]	> 10 µg/mL	0%	> 50 µg/mL	40 µg/mL (≈ 107 µM)	–	–
CC(NC(=S)Nc1ccc(NC(=O)Cc2ccccc2)cc1)c1ccc(F)cc1 (stereo not drawn) [Example 751, N-(4-{3-[1-(4-Fluoro-phenyl)-ethyl]-thioureido}-phenyl)-2-phenyl-acetamide]	–	–	> 10 µg/mL	> 0.5 µg/mL	–	–
CCC(=O)Nc1ccc(NC(=S)NC(C)c2ccc(F)cc2)cc1 (stereo not drawn) [Example 813, N-(4-{3-[1-(4-Fluoro-phenyl)-ethyl]-thioureido}-phenyl)-propionamide]	3.5 µg/mL (≈ 10.1 µM)	–	–	–	–	–
N-(4-{3-[1-(4-Fluoro-phenyl)-ethyl]-thioureido}-phenyl)-acetamide [Example 744]	–	–	–	–	>10 Ug/ml	>0.5 Ug/ml
